Reference: patent publication US10322111B2, “Chemokine receptor binding heterocyclic compounds with enhanced efficacy” (Genzyme Corporation, priority 2001, dated 2019)

Legend:
bone marrow stem cells = settings: rats, coronary artery ligation, administered within hours after cardiac ischemia, with or without rhG-CSF
Procedure: Adult rats are anesthetized and a thoracotomy is performed. The descending branch of the left coronary artery is ligated and not reperfused. […] Control rats are not treated with the reagents. The animals are monitored at one-week intervals by echocardiography and MRI. […] On the day of sacrifice, the hemodynamic functions are analyzed for left ventricle-end diastolic pressure, left ventricle-developed pressure and the rate of rise and fall of left ventricle pressure. The heart is then arrested in diastole and perfused via the abdominal aorta to flush residual blood from the vascular network of the myocardium. […] Several slices are made through the fixed heart and these are embedded in paraffin and sections. The sections are stained and analyzed by light microscopy to determine the size of the infarct in the treated and control animals. […] The immunohistochemical analysis involves the identification of transcription factors and surface markers expressed in early stages of myocyte development.

[1] = tested on: circulating CD34+ progenitor/stem cells; settings: single dose of 80 μg/kg, cited from earlier work

c1cc(CN2CCCNCCNCCCNCC2)ccc1CN1CCCNCCNCCCNCC1 [AMD-3100]
cardiac remodeling and scar formation (bone marrow stem cells): block to cardiac remodeling and scar formation
mobilization of bone marrow stem cells (bone marrow stem cells): mobilizes bone marrow stem cells rapidly
regeneration of myocardium (bone marrow stem cells): regeneration of the dead myocardium
peak increase in circulating CD34+ progenitor/stem cells ([1]; 6 hour time point): 6 fold
WBC count [1]: 17,000 μl
